Measurements reported in patent US6730064B2, “Coated implantable medical device” (Cook Incorporated, priority 1998, dated 2004).

Experiments:
[1] = In-vitro flow system (10 ml/min, 1% BSA in PBS): antibody remaining on stent; assay type: physicochemical; conditions: after approximately 10 days perfusion
Excerpt: In still another aspect of the present invention as depicted in FIG. 11, coating layer 16 can be considered an adsorbent layer and/or an absorbent layer in which a bioactive material is attached thereto. In one particular example, device 10 is a stainless steel GR II™ stent in which the stainless steel base material 14 of structure 12 is coated with a polymer and, in particular, parylene. This adsorbent polymer layer 16 of parylene is approximately 230,000 Å thick. Bioactive material layer 18 of the antiplatelet GP IIb/IIIa antibody (AZ1) was passively loaded on adsorbent polymer layer 16. The polymer coated stainless steel stents were immersed for approximately 24 hours in a buffered aqueous solution of AZ1 antibody (1 mg/ml, pH=7.2) at 37° C. AZ1 is a monoclonal anti-rabbit platelet glycoprotein (GP) IIb/IIIa antibody.
In another example, c7E3 Fab as bioactive material layer 18 is attached to polymer coating layer 16. Bioactive material c7E3 Fab is a chimeric monoclonal antibody that acts upon the […] integrin on platelets to inhibit their aggregation. This antibody or receptor blocker can be used in humans intravenously to prevent thrombosis during coronary angioplasty. This receptor blocker is also known as ReoPro™ available from Eli Lilly, Indianapolis, Ind. […]

[2] = tested on: porcine coronary in-stent restenosis model; test: Slow-release paclitaxel coated GR II stents versus control; assay type: in vivo; conditions: 175-200 μg total drug
Excerpt: Furthermore, the coating itself appears biocompatible.

in-stent restenosis = test: Fast-release low-dose and high-dose paclitaxel-coated stents versus control; assay type: in vivo, porcine
[3] = tested on: stented coronary arteries (in-stent restenosis); test: One-month pig studies, quantitative coronary angiography (QCA); assay type: in vivo, Juvenile domestic swine; conditions: 1 month
Method: (§1) No other antiplatelet agents or anticoagulants were given.
(§2) Angiograms were recorded immediately before stent implantation, immediately after stent implantation and at 1 month follow-up. Immediately after the follow-up angiography, the hearts were excised and the coronary vasculature was perfusion fixed at physiologic pressure. The vessels were then processed to obtain histologic cross sections for morphometric analysis from proximal, middle and distal locations within each stent.
(§3) Computer assisted quantitative coronary angiography (QCA) analysis and histomorphometric analysis were performed on each stented artery. Qualitative histopathologic analysis was also performed, with each artery evaluated for both injury and inflammation.

[4] = tested on: stented coronary arteries (in-stent restenosis); test: One-month pig studies, histomorphometric analysis; assay type: in vivo, Juvenile domestic swine; conditions: 1-month F/U
Method: as §1, §2, §3

[5] = tested on: stented coronary arteries; test: One-month pig studies, qualitative histopathologic analysis; assay type: in vivo, Juvenile domestic swine
Method: as §1, §2, §3

[6] = tested on: pigs with stented coronary arteries; conditions: in vivo
Excerpt: (§4) Juvenile domestic swine received one stent in the left anterior descending coronary artery (LAD) and/or one stent in the left circumflex (LCX) or right coronary arteries (RCA). To account for differences in vessel diameter prior to stenting, the deployment pressure for each stent was adjusted to achieve a balloon-to-artery ratio (BAR) of approximately 1.1-1.2. The pigs were followed for 1 month after stent implantation.
(§5) The pigs were fed a standard high fiber diet without lipid or cholesterol supplementation. For antiplatelet effect, each pig was administered approximately 325 mg aspirin and 250 mg ticlopidine daily, starting at least 2 days prior to surgery and continuing until the end of the study. Each pig was also administered approximately 10,000 units heparin during stent implantation and approximately 10,000 units heparin during follow-up angiography. No other antiplatelet agents or anticoagulants were given.

[7] = tested on: pigs with stented coronary arteries; test: One-month pig studies, premature deaths and safety
Excerpt: as §4, §5

[8] = 400 μg paclitaxel+parylene N stents

c7E3 Fab: chimeric monoclonal antibody acting on platelet GP IIb/IIIa integrin to inhibit aggregation
loaded antibody remaining on the stent [1]: approximately half

CC(=O)O[C@H]1C(=O)[C@@]2(C)[C@H]([C@H](OC(=O)c3ccccc3)[C@]3(O)C[C@H](OC(=O)[C@H](O)[C@@H](NC(=O)c4ccccc4)c4ccccc4)C(C)=C1C3(C)C)[C@]1(OC(C)=O)CO[C@@H]1C[C@@H]2O [Paclitaxel, paclitaxel]
in-stent restenosis compared with controls [2]: significantly reduced
Area Stenosis (in-stent restenosis; Low-Dose): 19.3 ± 9.45 %
in-stent restenosis compared to control stents (in-stent restenosis; high-dose): significantly reduced
in-stent restenosis compared to control stents (in-stent restenosis; low-dose): significantly reduced
Late Loss ([3]; 5 μg paclitaxel on stent): 17.9 ± 20.3%
MLD at F/U ([3]; 5 μg paclitaxel on stent): 1.74 ± 0.45 mm
Mean Diameter at Follow-up ([3]; 5 μg paclitaxel on stent): 2.23 ± 0.51 mm
Late Loss ([3]; 15 μg paclitaxel on stent): 20.1 ± 19.9%
MLD at F/U ([3]; 15 μg paclitaxel on stent): 1.90 ± 0.38 mm
Mean Diameter at Follow-up ([3]; 15 μg paclitaxel on stent): 2.15 ± 0.43 mm
Late Loss ([3]; 35 μg paclitaxel on stent): 2.6 ± 7.5%
MLD at F/U ([3]; 35 μg paclitaxel on stent): 2.42 ± 0.25 mm
Mean Diameter at Follow-up ([3]; 35 μg paclitaxel on stent): 2.62 ± 0.21 mm
Late Loss ([3]; 85 μg paclitaxel on stent): 1.6 ± 8.1%
MLD at F/U ([3]; 85 μg paclitaxel on stent): 2.61 ± 0.15 mm
Mean Diameter at Follow-up ([3]; 85 μg paclitaxel on stent): 2.77 ± 0.22 mm
Late Loss ([3]; 400 μg paclitaxel + parylene N): 0.32 ± 7.1%
MLD at F/U ([3]; 400 μg paclitaxel + parylene N): 2.75 ± 0.17 mm
Mean Diameter at Follow-up ([3]; 400 μg paclitaxel + parylene N): 2.92 ± 0.22 mm
Lumen Diameter ([4]; 5 μg paclitaxel on stent): 1.77 ± 0.34 mm
Neointimal Thickness ([4]; 5 μg paclitaxel on stent): 0.31 ± 0.20 mm
Outer Diameter ([4]; 5 μg paclitaxel on stent): 2.73 ± 0.28 mm
Wall Thickness ([4]; 5 μg paclitaxel on stent): 0.48 ± 0.23 mm
Lumen Diameter ([4]; 15 μg paclitaxel on stent): 1.87 ± 0.37 mm
Neointimal Thickness ([4]; 15 μg paclitaxel on stent): 0.29 ± 0.19 mm
Outer Diameter ([4]; 15 μg paclitaxel on stent): 2.41 ± 0.90 mm
Wall Thickness ([4]; 15 μg paclitaxel on stent): 0.46 ± 0.22 mm
Lumen Diameter ([4]; 35 μg paclitaxel on stent): 2.12 ± 0.52 mm
Neointimal Thickness ([4]; 35 μg paclitaxel on stent): 0.19 ± 0.16 mm
Outer Diameter ([4]; 35 μg paclitaxel on stent): 2.78 ± 0.32 mm
Wall Thickness ([4]; 35 μg paclitaxel on stent): 0.33 ± 0.17 mm
Lumen Diameter ([4]; 85 μg paclitaxel on stent): 2.40 ± 0.31 mm
Neointimal Thickness ([4]; 85 μg paclitaxel on stent): 0.15 ± 0.08 mm
Outer Diameter ([4]; 85 μg paclitaxel on stent): 2.96 ± 0.31 mm
Wall Thickness ([4]; 85 μg paclitaxel on stent): 0.28 ± 0.10 mm
Lumen Diameter ([4]; 400 μg paclitaxel + parylene N): 2.58 ± 0.19 mm
Neointimal Thickness ([4]; 400 μg paclitaxel + parylene N): 0.12 ± 0.06 mm
Outer Diameter ([4]; 400 μg paclitaxel + parylene N): 3.06 ± 0.17 mm
Wall Thickness ([4]; 400 μg paclitaxel + parylene N): 0.24 ± 0.07 mm
histologic sections with occasional small patches of luminal fibrin ([5]; 5 μg paclitaxel stents): none
histologic sections with vessel wall hypocellularity and hyalinization ([5]; 5 μg paclitaxel stents): approximately 28%
histologic sections with occasional small patches of luminal fibrin ([5]; 15 μg paclitaxel stents): none
histologic sections with vessel wall hypocellularity and hyalinization ([5]; 15 μg paclitaxel stents): approximately 67%
histologic sections with occasional small patches of luminal fibrin ([5]; 35 μg paclitaxel stents): approximately 50%
histologic sections with vessel wall hypocellularity and hyalinization ([5]; 35 μg paclitaxel stents): over 80%
histologic sections with occasional small patches of luminal fibrin ([5]; 85 μg paclitaxel stents): approximately 50%
histologic sections with vessel wall hypocellularity and hyalinization ([5]; 85 μg paclitaxel stents): over 80%
histologic sections with occasional small patches of luminal fibrin [5, 8]: approximately 50%
histologic sections with vessel wall hypocellularity and hyalinization [5, 8]: over 80%
safety problems related to the stents [6]: no safety problems
Premature Deaths ([7]; 5 μg paclitaxel on stent): One pig (stents in LAD &
Premature Deaths ([7]; 5 μg paclitaxel on stent, listed as paclitaxel): One pig
Premature Deaths ([7]; 15 μg paclitaxel on stent): One pig (stents in LAD &
Premature Deaths ([7]; 15 μg paclitaxel on stent, listed as paclitaxel): One pig
Premature Deaths ([7]; 35 μg paclitaxel on stent): None
Premature Deaths ([7]; 85 μg paclitaxel on stent): None
Premature Deaths ([7]; 400 μg paclitaxel + parylene N): None
